We go through 3 molecules from patent publication US8084621B2, “3-Pyrrolo[b]cyclohexylene-2-dihydroindolinone derivatives and uses thereof” (Jiangsu Simcere Pharmaceutical R&D Co. Ltd., priority 2006, dated 2011).

A word on the inhibition: it is how much of the control response was suppressed. What is called IC50 is the concentration that gives 50% inhibition.

Common to all, as to assay type: cell-based
The test system of assay [1] is Human Hepatocellular Carcinoma Cell Line (HEPG2). As to the kind of experiment: Tumor cell proliferation assay (MTT), HEPG2. The conditions noted are these: for inhibition at 10 µM: concentration of 10^−5 mol/L, preliminary screening, 72 hours, read-out: Inhibition rate % HEPG2.
Assay [2] relates to Human Non-Small Cell Lung Cancer Cell Line (A549). As to the kind of experiment: Tumor cell proliferation assay (MTT), A549. The settings on record: concentration of 10^−5 mol/L, preliminary screening, 72 hours, read-out: Inhibition rate % A549. In short, it runs like this: A
Assay [3] concerns Human Bladder Cancer Cell Line (T24). Kind of assay: Tumor cell proliferation assay (MTT), T24. The settings on record: for inhibition at 10 µM: concentration of 10^−5 mol/L, preliminary screening, 72 hours, read-out: Inhibition rate % T24.
Assay [4] has as its system Human Colon Cancer Cell Line (HCT 116). As to the kind of experiment: Tumor cell proliferation assay (MTT), HCT116. The conditions noted are these: concentration of 10^−5 mol/L, preliminary screening, 72 hours, read-out: Inhibition rate % HCT116. The source says: The assay used generally is the blue tetrazolium bromide (MTT) method. […] The amount of formazan can be detected by the microplate reader through the absorption value at 570 nm. The amount of formazan product generated is proportional to the number of living cells in the sample, so the OD value may reflect the number of living cells and the ability of a test drug to inhibit or kill cells. The MTT assay may be used in determining the ability of different compounds of the present invention to inhibit one or more cancer cells proliferation. Similar assays can be designed along the same lines for any cancer cell using techniques well known in the art.
The assay used generally is the blue tetrazolium bromide (MTT) method. […] Intracellular purple formazan salt crystals can be solved in DMSO and the absorption value at 570 nm is detected by the microplate reader, then the number of living cells can be detected indirectly. So MTT assay may be used to determine the ability of a compound of the present invention to inhibit cell proliferation. Similar assays can be designed along the same lines for any cancer cell using techniques well known in the art.
2.2.12 Human Colon Cancer Cell Line (HCT 116);
The cells of 2.2.11, 2.2.12, 2.2.13 were cultured in MC COYS 5-A medium containing 12% fetal bovine serum in the condition of 37° C., 5% CO2.
2.3.1 Cell seeding: Trypsinize the cell by 0.05% trypsin-EDTA and add RPMI 1640 medium (DMEM or 5A) containing 12% calf serum. Count the number, then dilute to 1.67×10^4/ml. Add 180 ul/well to the 96 well plate (3000 cells/well).
2.3.2 Culture: cells are incubated for 24 hours at 37° C. under 5% CO2.
2.3.3 Preliminary screening: The compounds are firstly diluted to 0.1 mol/L with DMSO, and then diluted to three concentrations of 10^−5 mol/L, 10^−6 mol/L and 10^−7 mol/L. Add 20 ul test compounds to the 96 well plate and incubate for 72 hours. Each group has three parallel wells and all experiments repeat three times. Each inhibition ratio is calculated, then an average value of three times is taken as the measured value. 2.3.4 Staining 2.3.4.1 Attached cell: add 20 ul/well MTT to the 96-well plates; incubate for 4 hours in the incubator. Pour out the culture medium in the well and add 100 ul/well DMSO. Shake the plate for 5 min. 2.3.4.2 Suspension cell: add 20 ul/well MTT to the 96-well plates; incubate for 4 hours in the incubator. Add 50 ul/well 20% SDS and incubate for overnight in the incubator. 2.3.5 Reading the plates: read the absorbance A570-A630 with the Infinite M200 microtiter plate reader. Calculate the inhibition ratio of the test compounds. 2.3.6 Secondary screening: the compounds whose inhibition ratio is greater than 50% at the concentrations of 10^−5 mol/L in the preliminary screening will be picked out for Secondary screening. Dilute these compounds to ten concentrations: 10^−5 mol/L, 0.5×10^−5 mol/L, 10^−6 mol/L, 0.8×10^−6 mol/L, 0.6×10^−6 mol/L, 0.4×10^−6 mol/L, 0.2×10^−6 mol/L, 10^−7 mol/L, 0.8×10^−7 mol/L and 0.4×10^−7 mol/L. Add 20 ul test compound solution to the 96 well plate and incubate for 48 hours. Each group has three parallel wells and all experiments repeat for three times. Read the plates and calculate the inhibition ratio according to the preliminary screening method. 2.3.7 Calculate the Inhibition Ratio of Cell Proliferation and the IC50
According to the inhibition ratio of cell proliferation at the different concentrations of the compound, inhibition ratio of 50% of the test compound is calculated through the logarithm of the concentration of the compound with the Logit [I] linear regression, and an average value of three times is taken as the measured value of a sample.

As for `Cc1[nH]c2c(c1C(=O)NCCO)CCC/C2=C1/C(=O)Nc2ccc(F)cc21` [I-9, N-(2-hydroxyethyl)-2-methyl-7-[1,2-dihydro-5-fluoro-2-oxo-3H-indol-(Z)-3-ylidene]-4,5,6,7-tetrahydro-1H-indole-3-carboxamide], the inhibition at 10 µM was 47.5% in assay [1], 16.3% in assay [2], 56.1% in assay [3] and 61.9% in assay [4].
With `Cc1[nH]c2c(c1C(=O)NCC(O)CN1CCCCC1)CCC/C2=C1/C(=O)Nc2ccccc21` (centres unmarked) [I-73, N-(2-hydroxy-3-(piperidin-1-yl)propyl)-2-methyl-7-[1,2-dihydro-2-oxo-3H-indol-(Z)-3-ylidene]-4,5,6,7-tetrahydro-1H-indole-3-carboxamide], the inhibition at 10 µM in assay [1] was found to be 59.3%; in assay [2], 2.54%; in assay [3] it was 88.4%; in assay [4], 98.7%. Also, the IC50 in assay [1] (secondary screening, 48 hours) came out at 7.36 µM; in assay [3] (secondary screening, 48 hours) it was 5.9 µM.
In the case of `Cc1[nH]c2c(c1C(=O)N1CCN(C)CC1)CCC/C2=C1/C(=O)Nc2ccc(F)cc21` [I-14, 2-methyl-3-(4-methylpiperazine-1-carbonyl)-7-[1,2-dihydro-5-fluoro-2-oxo-3H-indol-(Z)-3-ylidene]-4,5,6,7-tetrahydro-1H-indole], the inhibition at 10 µM turned out to be 30.4% in assay [1], 4.43% in assay [2], 34.4% in assay [3] and 22.1% in assay [4].
